The values that follow come from paper PMC6789782, “Safety Pharmacological Evaluation of the Coffee Component, Caffeoylquinic Acid, and Its Metabolites, Using Ex Vivo and In Vitro Profiling Assays” (Pharmaceuticals, 2019).

The conditions of data set [1]: cited from earlier work.
The subject of data set [2] is isolated perfused guinea pig heart. Description: Langendorff perfused heart assay. On the procedure:
After injection of heparin sodium (100 unit/body, AY Pharmaceuticals Co., Ltd.) into the jugular vein, the animals were exsanguinated. […] A stainless-steel cannula was inserted in the aorta, followed by attachment to the Langendorff apparatus (Physio-Tech Co., Ltd., Tokyo, Japan). The attached heart was perfused with KH solution at 37.0 ± 0.2 °C. Before use, the KH solution was aerated by a gas mixture (95%O2 + 5%CO2) for 30 min or longer. The perfusion pressure was maintained at 70 mmHg.
DMSO solutions at 1, 10, and 100 mM were diluted 1000-fold with the KH solution to make test solutions of 1, 10, and 100 μM, respectively. The test solutions were cumulatively applied at a flow rate of 20 mL/min for 10 min with each concentration.
An ECG signal was recorded using electrodes fixed on the ventricular apex (+), and a stainless-steel cannula was inserted in the aorta (−), and LVP was recorded from the balloon catheter placed in the left ventricle. The ECG signals were amplified with an amplifier (DAM50; World Precision Instruments, Inc.) and LVPs were monitored with a Pressure Monitor 4 (Living Systems Instrumentation). Both of the waveforms were recorded with computer software (1000 Hz; iox2 and ecgAUTO3; emka Technologies).
Before measurement, the in-balloon pressure was adjusted so that the diastolic blood pressure would be in the range of 0 to 10 mmHg. The cardiac parameters, such as HR, PR interval, QRS duration, QT interval, QTc interval (Fridericia’s formula: QTc = QT/RR^1/3), LVPSP, left-ventricular end diastolic pressure (LVEDP), and LV dP/dt max, were measured.
Data are expressed as mean (± SD). The measured % changes from the pre-application value were used for analyses. Williams test was carried out between the solvent-control and test compound. Student’s t-test was carried out between the solvent-control and positive-control. […] The data from the solvent control and drug groups were tested by F test for homogeneity of variance. F test was performed at the significance level of 5%. When the variances were homogeneous, Student’s t-test was subsequently performed. When the variances were nonhomogeneous, Welch t-test was selected.

In data set [3] the test system is rat hippocampal slices. Nature of the data set: Electrophysiological assay of hippocampal slices, population spike (PS) recording. Here is the method:
All animals were housed and used in accordance with the French and European legislations for animal care. Rats (Janvier Labs, Le Genest-Saint-Isle, France) were euthanized by fast decapitation, without prior anesthesia. The brain was quickly removed and soaked in ice-cold oxygenated buffer containing KCl 2 mM, NaH2PO4 1.2 mM, MgCl2 7 mM, CaCl2 0.5 mM, NaHCO3 26 mM, glucose 11 mM, and sucrose 250 mM. […] During the experiments, slices were perfused with oxygenated artificial cerebrospinal fluid at 37 °C at a rate of 3 mL/min. The tested slice numbers were > 2 for 100 µM, > 4 for 10 µM, and > 6 for 1 µM (follow-up study). All experiments were carried out with 3-dimensional multielectrode array (Qwane Biosciences S.A., Lausanne, Switzerland) and data were recorded with a commercially available multielectrode array set-up from MultiChannel Systems (MCS GmbH, Reutlingen, Germany).
A hippocampal slice was placed on the multielectrode array (100 μm distant electrodes). One electrode was chosen to stimulate schaffer collaterals (SC) at the CA1 border. The stimulus in a monopolar biphasic current pulse (−300 μA for 60 μs followed by +300 μA for 60 μs) was applied at 30-s intervals. An Input/Output (I/O) curve was derived before each experiment to determine the stimulation intensity. Basal stimulation intensity was then set to 100 μA higher than the minimal intensity necessary to induce PS in the pyramidal cell layer.
Then, 1 μM bicuculline, the antagonist of GABAA, was applied in the continuous presence of the compound for an additional 40-min. Control bicuculline slices were recorded in parallel and after 50 min of control recording, 1 μM bicuculline was applied for a 40-min period.
Normalized PS AUC was averaged by slices for each experiment carried out in the same conditions. PS AUC (± SEM) is expressed as a function of time. The number of PS oscillations induced at the end of the bicuculline-exposure period was determined for each electrode and averaged by slices. The results are presented as mean of the last 2 min of application. Statistical significance was measured using two-way ANOVA analysis with Sidak’s multiple comparisons test, except for the 100 µM concentration because of its small slice number.

Another data set has as its system peristaltic movement. The arrangement: method as in earlier work. The following applies: ref review reports on the Pharmaceuticals and Medical Devices Agency website; cited from earlier work.
Data set [4] has as its system rat hippocampal slices. Description: Electrophysiological assay of hippocampal slices, epileptiform discharge (ED) recording. The note with it: ± SEM. Here is the method: A hippocampal slice was placed on the multielectrode array (200 μm distant electrodes) to ensure the multi-electrode grid covered the major surface of the slice. […]
ED frequency (in Hz) was determined as follows: raw data were filtered with a Low Pass filter (Butterworth second order filter) set to 20 Hz. ED number was monitored on-line (epileptiform event amplitudes had to be higher than 15 μV to be counted; a dead time of 200 ms was applied for each epileptiform event detected). ED frequency was averaged using 30-s time intervals. Results are presented as mean frequency of ED for the last 2 min of each condition (± SEM).

Setting [5] is: laboratory background data of drugs, n = 3.
Where [6] appears, read: within the existing concentration range of each drug, laboratory background data.

Regarding `C=C[C@H]1C[N@@]2CC[C@H]1C[C@H]2[C@H](O)c1ccnc2ccc(OC)cc12` [Quinine], the “EfTPC (effective free therapeutic plasma concentration)” value in data set [1] was 21.577 [25] µM. For the same compound, in data set [2] (setting [5]), the “Lowest concentration indicating statistically significant % change to solvent control, HR” value is 1 µM; the “Lowest concentration indicating statistically significant % change to solvent control, LV dP/dtmax” value amounted to 1 µM; the “Lowest concentration indicating statistically significant % change to solvent control, LVEDP” value turned out to be 30 µM; the “Lowest concentration indicating statistically significant % change to solvent control, LVPSP” value is reported as 1 µM. Further, in data set [2] (setting [5]), the “Lowest concentration indicating statistically significant % change to solvent control, PR” value was found to be 3 µM; the “Lowest concentration indicating statistically significant % change to solvent control, QRS” value is given as 3 µM; the “Lowest concentration indicating statistically significant % change to solvent control, QT” value came out at 1 µM; the “Lowest concentration indicating statistically significant % change to solvent control, QTc” value is given as 1 µM. For the same compound, the “Maximum % change in LV dP/dt max” value in data set [2] (setting [6]) was −77.3%.

`CN(CCOc1ccc(NS(C)(=O)=O)cc1)CCc1ccc(NS(C)(=O)=O)cc1` [Dofetilide]: in data set [2] (setting [5]), the “Lowest concentration indicating statistically significant % change to solvent control, HR” value is 0.001 µM; the “Lowest concentration indicating statistically significant % change to solvent control, LVPSP” value is on record as 0.03 µM; the “Lowest concentration indicating statistically significant % change to solvent control, PR” value came to 0.01 µM; the “Lowest concentration indicating statistically significant % change to solvent control, QT” value turned out to be 0.001 µM. For the same compound, in data set [2] (setting [5]), the “Lowest concentration indicating statistically significant % change to solvent control, QTc” value was 0.001 µM. The “Maximum % change in QT interval” value in data set [2] (setting [6]) came to 33.5%.

Turning to `O=C(O[C@@H]1C[C@@H]2C[C@H]3C[C@H](C1)N2CC3=O)c1c[nH]c2ccccc12` [Dolasetron], in data set [2] (Hartley, guinea pig), the “Lowest concentration indicating statistically significant % change to solvent control, LV dP/dtmax” value was determined as 1 µM; the “Lowest concentration indicating statistically significant % change to solvent control, QT” value is on record as 1 µM; the “Lowest concentration indicating statistically significant % change to solvent control, QTc” value is reported as 1 µM. Further, in data set [2] (setting [5]), the “Lowest concentration indicating statistically significant % change to solvent control, HR” value is reported as 1 µM; the “Lowest concentration indicating statistically significant % change to solvent control, LVPSP” value is reported as 1 µM; the “Lowest concentration indicating statistically significant % change to solvent control, PR” value is listed as 1 µM; the “Lowest concentration indicating statistically significant % change to solvent control, QRS” value is reported as 3 µM. Besides, the “Maximum % change in PR interval” value in data set [2] (setting [6]) turned out to be 106.9%.

With `O=C(O)COCCN1CCN([C@H](c2ccccc2)c2ccc(Cl)cc2)CC1` [Levocetirizine], the “Maximum % change in LV dP/dt max” value in data set [2] (setting [6]) was −21.8%.

Take `CN1CCc2cc3c(cc2[C@H]1[C@@H]1OC(=O)c2c1ccc1c2OCO1)OCO3` [bicuculline, reference compound]: the Additional spike number in the data set on rat hippocampal slices [3] (1 μM alone, single stimulation, control slices) was 1.32 ± 0.32; with rat hippocampal slices [3] (follow-up test, 1 μM bicuculline control slices) it was 1.47 ± 0.18.

Consider `Nc1nnc(-c2cccc(Cl)c2Cl)c(N)n1` [Lamotrigine], for which the “Concentration at which peristaltic movement was reduced” value in the data set with peristaltic movement was 300 nM.

On to `COc1c(N2C[C@@H]3CCCN[C@@H]3C2)c(F)cc2c(=O)c(C(=O)O)cn(C3CC3)c12` [Moxifloxacin], for which the “EfTPC (effective free therapeutic plasma concentration)” value in data set [1] was 10.960 [26] µM. Besides, in data set [2] (setting [5]), the “Lowest concentration indicating statistically significant % change to solvent control, HR” value was determined as 30 µM; the “Lowest concentration indicating statistically significant % change to solvent control, LV dP/dtmax” value is 100 µM; the “Lowest concentration indicating statistically significant % change to solvent control, LVPSP” value is reported as 3 µM; the “Lowest concentration indicating statistically significant % change to solvent control, PR” value turned out to be 30 µM. For the same compound, in data set [2] (setting [5]), the “Lowest concentration indicating statistically significant % change to solvent control, QRS” value turned out to be 10 µM; the “Lowest concentration indicating statistically significant % change to solvent control, QT” value turned out to be 3 µM; the “Lowest concentration indicating statistically significant % change to solvent control, QTc” value stood at 3 µM. The “Maximum % change in QT interval” value in data set [2] (setting [6]) is 29.3%.

In the case of `Nc1ccncc1` [4-AP, 4-aminopyridine, reference compound], the ED rate in the data set on rat hippocampal slices [4] (4-AP control slices (4-AP alone)) turned out to be 0.38 ± 0.02 Hz; in the data set on rat hippocampal slices [4] (follow-up test, 4-AP control slices) it was 0.38 ± 0.04 Hz.

Take `Cc1nccn1CC1CCc2c(c3ccccc3n2C)C1=O` (stereo not shown) [Ondansetron]: in data set [1], the “EfTPC (effective free therapeutic plasma concentration)” value is 1.023 [25] µM. Besides, in data set [2] (setting [5]), the “Lowest concentration indicating statistically significant % change to solvent control, HR” value came to 1 µM; the “Lowest concentration indicating statistically significant % change to solvent control, LV dP/dtmax” value is recorded as 1 µM; the “Lowest concentration indicating statistically significant % change to solvent control, LVEDP” value came out at 1 µM; the “Lowest concentration indicating statistically significant % change to solvent control, LVPSP” value came out at 1 µM. Further, in data set [2] (setting [5]), the “Lowest concentration indicating statistically significant % change to solvent control, PR” value was determined as 10 µM; the “Lowest concentration indicating statistically significant % change to solvent control, QRS” value was 10 µM; the “Lowest concentration indicating statistically significant % change to solvent control, QT” value was found to be 1 µM; the “Lowest concentration indicating statistically significant % change to solvent control, QTc” value was found to be 1 µM. Besides, the “Maximum % change in LV dP/dt max” value in data set [2] (setting [6]) was −47.4%.
